Here are results for 31 molecules from PMC6539594, “Triazolopeptides Inhibiting the Interaction between Neuropilin-1 and Vascular Endothelial Growth Factor-165” (Molecules, 2019).

“And” between values parts separate entries of the source, which are not always exact repeats. Equal entries are not always repeated. “Also recorded” adds a separate entry of the source. Where two headings read alike, the source gives them in different places. Where no end group is shown, it is not given here. [ ]: non-standard residue; d: D form. hArg = N=C(N)NCCCC[C@H](N)C(=O)O; Dab = NCC[C@H](N)C(=O)O Where only a bound is given, the exact number is not on record here.

Data set [1] concerns the target T1, NRP-1 (neuropilin-1), binding of bt-VEGF165 (Homo sapiens, UniProt O14786). Nature of the data set: ELISA: inhibition of bt-VEGF165 binding to NRP-1. The note with it: for Inhibition of bt-VEGF165 Binding to NRP-1 [10 µM] / inhibition at 10 µM: mean ± S.D. On the procedure:
The inhibitory activity of obtained triazolopeptides 1–23 toward binding of VEGF165 to NRP-1 was measured with the enzyme-linked immunosorbent assay (ELISA). This protocol was described earlier in the literature and was broadly used by our group. VEGF165 was used in biotinylated form (bt-VEGF165).
This assay was carried out according to a previously described method.
For orientation: An ELISA detects its analyte on a solid surface through an enzyme-linked reagent.

Details of data set [2]: method as in PMID 30241012. To be noted: human plasma; cited from earlier work.
Data set [3] can be described thus: Proteolytic stability by incubation in human plasma at 37 °C (HPLC-MS). The class given is in vitro ADME. To be noted: for remaining at 8 h, 1.1 µmol/mL / remaining at 16 h, 1.1 µmol/mL / remaining at 24 h, 1.1 µmol/mL / remaining at 32 h, 1.1 µmol/mL / remaining at 40 h, 1.1 µmol/mL / remaining at 48 h, 1.1 µmol/mL: human; for remaining at 8 h, 1.1 µmol/mL / remaining at 16 h, 1.1 µmol/mL / remaining at 24 h, 1.1 µmol/mL / remaining at 32 h, 1.1 µmol/mL / remaining at 40 h, 1.1 µmol/mL / remaining at 48 h, 1.1 µmol/mL / half-life: pooled human plasma. The procedure:
The samples of the incubated solutions were taken at constant time intervals (every 8 h) and analyzed with the use of HPLC-MS. This technique allows for determination of the proteolysis rate, and enables finding the cleavage sites by structural determination of appearing metabolites. To this aim, we used a previously established protocol.
The human plasma was provided by Mossakowski Medical Research Centre Polish Academy of Sciences (venous blood was obtained from three healthy donors and plasma samples were pooled in equal volumes). Triazolopeptide stock solution was prepared to achieve concentration ca. 1.4 mg/mL. Then, this solution was diluted two-fold into human plasma, affording a final concentration of ca. 1.1 µmol/mL. The samples were mixed on vortex mixer and incubated at 37 °C with 700 rpm mixing in thermoblock. Samples of 100 µL were taken every 8 h; the enzymatic cleavage was quenched by addition of 200 µL of 15% aqueos trichloroacetic acid and vortexed for a while. Precipitated proteins were then centrifuged at 14,000 rpm and 4 °C for 10 min to pellet them. After that, 150 µL of supernatant was taken and analyzed on HPLC-MS (quadrupole mass analyzer and electrospray ionization source). The system was equipped with Jupiter Proteo column I.D. 2.0 mm × 250 mm, phase A: ultrapure water + 0.05% TFA, phase B: gradient grade acetonitrile + 0.05% TFA, detection at 210 nm, quadrupole fixed on scan mode. Elution was with linear increase from 0% to 15% of phase B in 30 min, flow = 0.2 mL/min. All samples were analyzed trice in independent experiments.

Data set [4] concerns the target T1, NRP-1 (neuropilin-1), binding of bt-VEGF165. To be noted: cited from earlier work.
The test system of data set [5] is drug-resistant MDA-MB-231 human breast cancer cells xenograft. Also on record: method as in PMID 16959272. The note with it: nude mice xenografted with drug-resistant MDA-MB-231 human breast cancer cells; cited from earlier work.
Another data set in a line: in vitro. The note with it: mouse, cell viability (Muse Cell Analyser), single replicates.
Data set [6] deals with myeloblast-like cell line derived from bone marrow (32D). Briefly: In vitro cell survival test (Muse Count & Viability Kit). To be noted: 32D cells.
Procedure: For this reason, we carried out a preliminary cytotoxicity assay on murine progenitor cells (myeloblast-like cell line derived from long term cultures of bone marrow 32D) to investigate the impact of 4 at different concentrations on their viability.
For the cell survivability test, the myeloblast-like cell line derived from long term cultures of bone marrow (32D, ATCC #CRL-11346) was used. Experiments were carried out using Muse Count & Viability Kit and Muse Cell Analyzer (Merck Millipore) according to the procedure given. Cells were incubated for 24 or 48 h with given 4 concentration. Each experiment was performed in three technical replications in three independent experiments.
Setting [7] is: read-out: Relative (peak area average vs 0 h).

T1 sequence (O14786 22-923, species assumed): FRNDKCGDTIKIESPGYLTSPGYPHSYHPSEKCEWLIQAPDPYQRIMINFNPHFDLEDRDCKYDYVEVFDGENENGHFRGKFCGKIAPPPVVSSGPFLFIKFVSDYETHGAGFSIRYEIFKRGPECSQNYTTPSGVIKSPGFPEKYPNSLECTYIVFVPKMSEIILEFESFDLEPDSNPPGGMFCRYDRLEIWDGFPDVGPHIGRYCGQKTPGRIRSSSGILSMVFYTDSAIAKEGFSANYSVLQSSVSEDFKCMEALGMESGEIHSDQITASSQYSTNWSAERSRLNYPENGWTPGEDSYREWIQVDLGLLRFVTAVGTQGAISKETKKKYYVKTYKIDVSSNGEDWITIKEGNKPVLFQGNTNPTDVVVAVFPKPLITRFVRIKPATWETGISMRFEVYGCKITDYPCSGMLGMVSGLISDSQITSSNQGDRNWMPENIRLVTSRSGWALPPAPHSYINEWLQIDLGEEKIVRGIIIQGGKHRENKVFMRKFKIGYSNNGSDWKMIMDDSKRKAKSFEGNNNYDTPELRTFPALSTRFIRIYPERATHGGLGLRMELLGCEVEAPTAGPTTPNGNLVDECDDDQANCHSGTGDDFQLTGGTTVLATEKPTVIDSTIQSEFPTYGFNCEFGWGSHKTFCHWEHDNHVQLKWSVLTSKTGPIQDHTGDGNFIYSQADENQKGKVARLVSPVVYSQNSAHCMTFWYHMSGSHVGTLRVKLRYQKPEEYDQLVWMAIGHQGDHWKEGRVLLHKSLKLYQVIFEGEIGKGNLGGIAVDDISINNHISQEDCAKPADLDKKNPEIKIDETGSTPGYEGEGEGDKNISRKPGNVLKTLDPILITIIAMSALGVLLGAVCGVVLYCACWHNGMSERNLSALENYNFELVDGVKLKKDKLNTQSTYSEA

Take Har-Pro-GlyΨ[Trl]Arg [Compound 12]: the “Inhibition of bt-VEGF165 Binding to NRP-1 [10 µM]” value (shortened to “Inhibition of bt-VEGF165 Binding”) in data set [1] was 9.2 ± 0.8%.

Turning to “D-Lys(Har)-Pro-GlyΨ[Trl]Arg [Compound 7]”, the “Inhibition of bt-VEGF165 Binding” value in data set [1] came out at 38.4 ± 1.5%.

Take Har-GlyΨ[Trl]GlyΨ[Trl]Arg [Compound 23]: the “Inhibition of bt-VEGF165 Binding” value in data set [1] is reported as 20.0 ± 2.1%.

For `N=C(N)NCCCC[C@@H](N)C(=O)NCCCC[C@@H](N)C(=O)NCc1cn(Cc2cn([C@@H](CCCNC(=N)N)C(=O)O)nn2)nn1` [Compound 5, D-Lys(D-Har)-GlyΨ[Trl]GlyΨ[Trl]Arg], in data set [1], at 10 µM the inhibition was 48.5 ± 2.9%. Moreover, the IC50 (commonly the concentration that gives 50% inhibition) in data set [1] (dose-response curve, supplement) amounted to 9.11 µM.

As for Lys(Har)-Pro-Dab-Arg, the t1/2 in data set [2] was 0.733 h.

As to `N=C(N)NCCCC[C@H](N)C(=O)NCCCC[C@H](N)C(=O)NCc1cn(Cc2cn([C@@H](CCCNC(=N)N)C(=O)O)nn2)nn1` [Compound 3, Lys(Har)-GlyΨ[Trl]GlyΨ[Trl]Arg], in data set [3], the “compound remained in the solution after 48 h of incubation” value is recorded as “more than 70%” and the half-life (in general, how long it takes for the measured level to halve) was over 48 h. For the same molecule, in data set [3] (setting [7]), the remaining at 8 h, 1.1 µmol/mL amounted to 91.3%; the remaining at 16 h, 1.1 µmol/mL was found to be 90%; the remaining at 24 h, 1.1 µmol/mL turned out to be 87.6%; the remaining at 32 h, 1.1 µmol/mL turned out to be 81.8%. Also, in data set [3] (setting [7]), the remaining at 40 h, 1.1 µmol/mL worked out at 73.4% and the remaining at 48 h, 1.1 µmol/mL stood at 72.2%. Moreover, the remaining at 48 h, 1.1 µmol/mL in data set [3] (read-out: compound remained in the solution after 48 h of incubation) is about 70%. Also, in data set [1], the 50% inhibitory concentration (IC50) was 8.39 µM and the inhibition – broadly, how much of the control response was suppressed – at 10 µM stood at 58.1 ± 2.1%.

“Dab(Har)-GlyΨ[Trl]GlyΨ[Trl]Arg [Compound 17]”: the “Inhibition of bt-VEGF165 Binding” value in data set [1] was determined as 41.3 ± 0.5%.

“Har-Ala-GlyΨ[Trl]GlyΨ[Trl]Arg [Compound 21]”: the “Inhibition of bt-VEGF165 Binding” value in data set [1] is recorded as 27.8 ± 2.1%.

With “Har-Gly-GlyΨ[Trl]GlyΨ[Trl]Arg [Compound 22]”, the “Inhibition of bt-VEGF165 Binding” value in data set [1] is 35.7 ± 1.6%.

On to Lys(Har)-Pro-Dab-Arg (K(hArg)P[Dab]R), for which the IC50 in data set [4] was 0.3 µM.

Turning to Lys(Har)-GlyΨ[Trl]Arg [Compound 1], the “Inhibition of bt-VEGF165 Binding” value in data set [1] is given as 28.1 ± 1.2%.

Regarding Lys(Har)-Pro-GlyΨ[Trl]Arg [Compound 6], in data set [1], the “Inhibition of bt-VEGF165 Binding” value came out at 18.3 ± 0.9%.

As for ATWKPPR [A7R], in data set [5], the activity in vivo entry is “active in vivo”. Besides, in data set [4], the “Inhibition of bt-VEGF165 Binding” value is reported as 61.0 ± 0.4 ^3% and the concentration for half-maximal inhibition (IC50) is 5.86 µM.

For the molecule “Har-Lys-GlyΨ[Trl]GlyΨ[Trl]Arg [Compound 16]”, in data set [1], the “Inhibition of bt-VEGF165 Binding” value is recorded as 36.5 ± 1.4%.

For the molecule “D-Lys(Har)-Phe-GlyΨ[Trl]Arg [Compound 9]”, the “Inhibition of bt-VEGF165 Binding” value in data set [1] came to 37.9 ± 1.1%.

Take Lys(Har)-GlyΨ[Trl]Ala-Arg [Compound 10]: the “Inhibition of bt-VEGF165 Binding” value in data set [1] is 43.3% and 43.2 ± 1.5%.

“Lys(Fmoc-Har)-GlyΨ[Trl]GlyΨ[Trl]Arg [Compound 14]”: the “Inhibition of bt-VEGF165 Binding” value in data set [1] is given as 57.7 ± 1.8%.

Take D-Lys(Har)-GlyΨ[Trl]Arg [Compound 2]: the “Inhibition of bt-VEGF165 Binding” value in data set [1] turned out to be 33.1 ± 1.9%.

For the molecule Lys(Har)-Dab-Pro-Arg, in data set [4], the “Inhibition of bt-VEGF165 Binding” value is listed as 98.5% and the IC50 was 0.2 µM. In addition, the t1/2 in data set [2] is listed as 34 h.

For “Lys-Pro-Pro-Arg (KPPR; printed: Lys-Pro-Pro-Arg)”, in data set [4], the “Inhibition of bt-VEGF165 Binding” value is 64.5% and the IC50 was 4.6 µM.

On to Lys(Har)-GlyΨ[Trl]Gly-Arg [Compound 11], for which the “Inhibition of bt-VEGF165 Binding” value in data set [1] is listed as 30.6 ± 1.1%.

With “Dap(Har)-GlyΨ[Trl]GlyΨ[Trl]Arg [Compound 18]”, the “Inhibition of bt-VEGF165 Binding” value in data set [1] turned out to be 25.3 ± 3.5%.

Consider “D-Lys(Fmoc-Har)-GlyΨ[Trl]GlyΨ[Trl]Arg [Compound 15]”, for which the “Inhibition of bt-VEGF165 Binding” value in data set [1] turned out to be 43.7 ± 0.5%.

For Lys(Har)-Pro-Ala-Arg (KPAR), the IC50 in data set [4] was 0.2 µM.

Lys(Har)-Dap-Pro-Arg: in data set [4], the “Inhibition of bt-VEGF165 Binding” value is listed as 96.8% and the IC50 was 0.2 µM. For the same molecule, the t1/2 in data set [2] is on record as 41 h.

For the molecule Lys(Har)-Pro-Ala-Arg, the t1/2 in data set [2] is 0.65 h.

Turning to Lys(Har)-Phe-GlyΨ[Trl]Arg [Compound 8], in data set [1], the “Inhibition of bt-VEGF165 Binding” value worked out at 30.9 ± 2.1%.

As for “Har-GlyΨ[Trl]GlyΨ[Trl]GlyΨ[Trl]Arg [Compound 13]”, in data set [1], the “Inhibition of bt-VEGF165 Binding” value is on record as 34.8 ± 1.5%.

For `N=C(N)NCCCC[C@H](N)C(=O)NCCCC[C@@H](N)C(=O)NCc1cn(Cc2cn([C@@H](CCCNC(=N)N)C(=O)O)nn2)nn1` [Compound 4, D-Lys(Har)-GlyΨ[Trl]GlyΨ[Trl]Arg], in the data set “in vitro”, the viability (as a rule, a read-out of living cells in per cent, often relative to untreated cells) at 24 h, 0.1 µM came to 99.4%; the viability at 24 h, 1 µM was 99.3%; the viability at 24 h, 10 µM came to 99%; the viability at 24 h, 50 µM came out at 98.7%. Also, in “in vitro”, the viability at 24 h, 100 µM came to 98.6%; the viability at 48 h, 0.1 µM was determined as 99.4%; the viability at 48 h, 1 µM worked out at 99.6%; the viability at 48 h, 10 µM amounted to 99.4%. Further, in the data set “in vitro”, the viability at 48 h, 50 µM stood at 99.7% and the viability at 48 h, 100 µM is 99.2%. Also, in data set [3], the “compound remained in the solution after 48 h of incubation” value was “almost undigested; also recorded: almost non-degraded” and the half-life is over 48 h. In data set [3] (setting [7]), the remaining at 8 h, 1.1 µmol/mL amounted to 99.4%; the remaining at 16 h, 1.1 µmol/mL worked out at 95.7%; the remaining at 24 h, 1.1 µmol/mL stood at 93.3%; the remaining at 32 h, 1.1 µmol/mL amounted to 93.1%. Moreover, in data set [3] (setting [7]), the remaining at 40 h, 1.1 µmol/mL was 93% and the remaining at 48 h, 1.1 µmol/mL worked out at 91.8%. Also, in data set [6] (100 µM, 48 h incubation), the “impact on cell survivability” value is “does not exhibit any significant impact on normal cells’ viability; also recorded: does not exhibit any significant impact on cell survivability”. For the same molecule, the “cell survival, t-test” value in data set [6] (different concentrations) is given as “No significant differences in cell survival”. In data set [1], this molecule returned an IC50 of 10.2 µM and an inhibition at 10 µM of 52.6 ± 1.3%.

With “Har-6Ahx-GlyΨ[Trl]GlyΨ[Trl]Arg [Compound 19]”, the “Inhibition of bt-VEGF165 Binding” value in data set [1] was found to be 30.5 ± 0.6%.

For the molecule “Har-5Ava-GlyΨ[Trl]GlyΨ[Trl]Arg [Compound 20]”, the “Inhibition of bt-VEGF165 Binding” value in data set [1] was found to be 29.7 ± 1.8%.
